From PubChem BioAssay (NCI)
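Five concentrations, 48 hours, 96-well plates. GI50 marks 50% less growth. At the TGI there is no net growth.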

Experiments:
Test in all cases: NCI tumour cell line growth inhibition, 48 h
SF-295 CNS = test system: SF-295 CNS
UACC-257 melanoma = test system: UACC-257 melanoma
EKVX NSCLC = test system: EKVX NSCLC
HT29 colon = test system: HT29 colon
SF-539 CNS = test system: SF-539 CNS
MOLT-4 leukemia = test system: MOLT-4 leukemia
RXF-631 renal = test system: RXF-631 renal
LXFL 529 NSCLC = test system: LXFL 529 NSCLC
UACC-62 melanoma = test system: UACC-62 melanoma
OVCAR-4 ovarian = test system: OVCAR-4 ovarian
HCT-15 colon = test system: HCT-15 colon
HOP-92 NSCLC = test system: HOP-92 NSCLC
K-562 leukemia = test system: K-562 leukemia
RXF 393 renal = test system: RXF 393 renal
NCI-H460 lung = test system: NCI-H460 lung
OVCAR-5 ovarian = test system: OVCAR-5 ovarian
M19-MEL melanoma = test system: M19-MEL melanoma
COLO 205 colon = test system: COLO 205 colon
HCC-2998 colon = test system: HCC-2998 colon
786-0 renal = test system: 786-0 renal
SW-620 colon = test system: SW-620 colon
KM20L2 colon = test system: KM20L2 colon
IGROV1 ovarian = test system: IGROV1 ovarian
M14 melanoma = test system: M14 melanoma
DMS 273 small cell lung = test system: DMS 273 small cell lung
RPMI-8226 leukemia = test system: RPMI-8226 leukemia
CCRF-CEM leukemia = test system: CCRF-CEM leukemia
SK-MEL-2 melanoma = test system: SK-MEL-2 melanoma
SF-268 CNS = test system: SF-268 CNS
HCT-116 colon = test system: HCT-116 colon
LOX IMVI melanoma = test system: LOX IMVI melanoma
NCI-H226 lung = test system: NCI-H226 lung
TK-10 renal = test system: TK-10 renal
SN12C renal = test system: SN12C renal
SK-MEL-5 melanoma = test system: SK-MEL-5 melanoma
SNB-78 CNS = test system: SNB-78 CNS
MALME-3M melanoma = test system: MALME-3M melanoma
SK-OV-3 ovarian = test system: SK-OV-3 ovarian
SNB-19 CNS = test system: SNB-19 CNS
NCI-H23 lung = test system: NCI-H23 lung
ACHN renal = test system: ACHN renal
SR leukemia = test system: SR leukemia
A549 NSCLC = test system: A549 NSCLC
OVCAR-8 ovarian = test system: OVCAR-8 ovarian
SK-MEL-28 melanoma = test system: SK-MEL-28 melanoma
U251 CNS = test system: U251 CNS
CAKI-1 renal = test system: CAKI-1 renal
DLD-1 colon = test system: DLD-1 colon
XF 498 CNS = test system: XF 498 CNS
KM12 colon = test system: KM12 colon
HOP-18 NSCLC = test system: HOP-18 NSCLC
OVCAR-3 ovarian = test system: OVCAR-3 ovarian
HL-60(TB) leukemia = test system: HL-60(TB) leukemia
UO-31 renal = test system: UO-31 renal
NCI-H522 lung = test system: NCI-H522 lung
SNB-75 CNS = test system: SNB-75 CNS
DMS 114 small cell lung = test system: DMS 114 small cell lung
A498 renal = test system: A498 renal
HOP-62 NSCLC = test system: HOP-62 NSCLC

## O=C([O-])c1ccc(C(=O)[O-])cc1.O=C([O-])c1ccc(C(=O)[O-])cc1.[Mo+2].[Mo+2]
SF-295 CNS
  GI50: > 100 µM
  TGI: > 100 µM
UACC-257 melanoma
  GI50: > 100 µM
  TGI: > 100 µM
EKVX NSCLC
  GI50: > 100 µM
  TGI: > 100 µM
HT29 colon
  GI50: > 100 µM
  TGI: > 100 µM
SF-539 CNS
  GI50: > 100 µM
  TGI: > 100 µM
MOLT-4 leukemia
  GI50: > 100 µM
  TGI: > 100 µM
RXF-631 renal
  GI50: > 100 µM
  TGI: > 100 µM
LXFL 529 NSCLC
  GI50: > 100 µM
  TGI: > 100 µM
UACC-62 melanoma
  GI50: > 100 µM
  TGI: > 100 µM
OVCAR-4 ovarian
  GI50: > 100 µM
  TGI: > 100 µM
HCT-15 colon
  GI50: > 100 µM
  TGI: > 100 µM
HOP-92 NSCLC
  GI50: 99.8 µM
  TGI: > 100 µM
K-562 leukemia
  GI50: > 100 µM
  TGI: > 100 µM
RXF 393 renal
  GI50: > 100 µM
  TGI: > 100 µM
NCI-H460 lung
  GI50: > 100 µM
  TGI: > 100 µM
OVCAR-5 ovarian
  GI50: > 100 µM
  TGI: > 100 µM
M19-MEL melanoma
  GI50: > 100 µM
  TGI: > 100 µM
COLO 205 colon
  GI50: > 100 µM
  TGI: > 100 µM
HCC-2998 colon
  GI50: > 100 µM
  TGI: > 100 µM
786-0 renal
  GI50: > 100 µM
  TGI: > 100 µM
SW-620 colon
  GI50: > 100 µM
  TGI: > 100 µM
KM20L2 colon
  GI50: > 100 µM
  TGI: > 100 µM
IGROV1 ovarian
  GI50: > 100 µM
  TGI: > 100 µM
M14 melanoma
  GI50: > 100 µM
  TGI: > 100 µM
DMS 273 small cell lung
  GI50: > 100 µM
  TGI: > 100 µM
RPMI-8226 leukemia
  GI50: > 100 µM
  TGI: > 100 µM
CCRF-CEM leukemia
  GI50: > 100 µM
  TGI: > 100 µM
SK-MEL-2 melanoma
  GI50: > 100 µM
  TGI: > 100 µM
SF-268 CNS
  GI50: > 100 µM
  TGI: > 100 µM
HCT-116 colon
  GI50: > 100 µM
  TGI: > 100 µM
LOX IMVI melanoma
  GI50: > 100 µM
  TGI: > 100 µM
NCI-H226 lung
  GI50: > 100 µM
  TGI: > 100 µM
TK-10 renal
  GI50: > 100 µM
  TGI: > 100 µM
SN12C renal
  GI50: > 100 µM
  TGI: > 100 µM
SK-MEL-5 melanoma
  GI50: > 100 µM
  TGI: > 100 µM
SNB-78 CNS
  GI50: > 100 µM
  TGI: > 100 µM
MALME-3M melanoma
  GI50: > 100 µM
  TGI: > 100 µM
SK-OV-3 ovarian
  GI50: > 100 µM
  TGI: > 100 µM
SNB-19 CNS
  GI50: > 100 µM
  TGI: > 100 µM
NCI-H23 lung
  GI50: > 100 µM
  TGI: > 100 µM
ACHN renal
  GI50: > 100 µM
  TGI: > 100 µM
SR leukemia
  GI50: > 100 µM
  TGI: > 100 µM
A549 NSCLC
  GI50: > 100 µM
  TGI: > 100 µM
OVCAR-8 ovarian
  GI50: > 100 µM
  TGI: > 100 µM
SK-MEL-28 melanoma
  GI50: > 100 µM
  TGI: > 100 µM
U251 CNS
  GI50: > 100 µM
  TGI: > 100 µM
CAKI-1 renal
  GI50: > 100 µM
  TGI: > 100 µM
DLD-1 colon
  GI50: > 100 µM
  TGI: > 100 µM
XF 498 CNS
  GI50: > 100 µM
  TGI: > 100 µM
KM12 colon
  GI50: > 100 µM
  TGI: > 100 µM
HOP-18 NSCLC
  GI50: > 100 µM
  TGI: > 100 µM
OVCAR-3 ovarian
  GI50: > 100 µM
  TGI: > 100 µM
HL-60(TB) leukemia
  GI50: > 100 µM
  TGI: > 100 µM
UO-31 renal
  GI50: > 100 µM
  TGI: > 100 µM

## CCOC(=O)C1=C(C)N(NC(N)=O)C2(O)CCCC(=O)C12C (configuration not stated)
SF-295 CNS
  TGI: > 100 µM
UACC-257 melanoma
  TGI: > 100 µM
HT29 colon
  TGI: > 100 µM
SF-539 CNS
  TGI: > 100 µM
RXF-631 renal
  TGI: > 100 µM
LXFL 529 NSCLC
  TGI: > 100 µM
UACC-62 melanoma
  TGI: > 100 µM
OVCAR-4 ovarian
  TGI: > 100 µM
HCT-15 colon
  TGI: > 100 µM
HOP-92 NSCLC
  TGI: > 100 µM
RXF 393 renal
  TGI: > 100 µM
OVCAR-5 ovarian
  TGI: > 100 µM
COLO 205 colon
  TGI: > 100 µM
HCC-2998 colon
  TGI: > 100 µM
NCI-H522 lung
  TGI: > 100 µM
SW-620 colon
  TGI: > 100 µM
KM20L2 colon
  TGI: > 100 µM
IGROV1 ovarian
  TGI: > 100 µM
M14 melanoma
  TGI: > 100 µM
DMS 273 small cell lung
  TGI: > 100 µM
RPMI-8226 leukemia
  TGI: > 100 µM
SK-MEL-2 melanoma
  TGI: > 100 µM
LOX IMVI melanoma
  TGI: > 100 µM
NCI-H226 lung
  TGI: > 100 µM
TK-10 renal
  TGI: > 100 µM
SN12C renal
  TGI: > 100 µM
SNB-75 CNS
  TGI: > 100 µM
SK-MEL-5 melanoma
  TGI: > 100 µM
SNB-78 CNS
  TGI: > 100 µM
MALME-3M melanoma
  TGI: > 100 µM
SK-OV-3 ovarian
  TGI: > 100 µM
SNB-19 CNS
  TGI: > 100 µM
NCI-H23 lung
  TGI: > 100 µM
ACHN renal
  TGI: > 100 µM
DMS 114 small cell lung
  TGI: > 100 µM
A549 NSCLC
  TGI: > 100 µM
OVCAR-8 ovarian
  TGI: > 100 µM
SK-MEL-28 melanoma
  TGI: > 100 µM
U251 CNS
  TGI: > 100 µM
CAKI-1 renal
  TGI: > 100 µM
DLD-1 colon
  TGI: > 100 µM
XF 498 CNS
  TGI: > 100 µM
A498 renal
  TGI: > 100 µM
KM12 colon
  TGI: > 100 µM
HOP-18 NSCLC
  TGI: > 100 µM
OVCAR-3 ovarian
  TGI: > 100 µM

## COC(=O)C(Cc1nc2ccc(Cl)cc2[nH]c1=O)/C(=N/NC(N)=O)C(=O)Nc1ccc(Cl)cc1 (configuration not stated)
SF-295 CNS
  TGI: > 100 µM
UACC-257 melanoma
  TGI: > 100 µM
EKVX NSCLC
  TGI: > 100 µM
HT29 colon
  TGI: > 100 µM
SF-539 CNS
  TGI: > 100 µM
MOLT-4 leukemia
  TGI: > 100 µM
RXF-631 renal
  TGI: > 100 µM
LXFL 529 NSCLC
  TGI: > 100 µM
UACC-62 melanoma
  TGI: > 100 µM
OVCAR-4 ovarian
  TGI: > 100 µM
HCT-15 colon
  TGI: > 100 µM
HOP-92 NSCLC
  TGI: > 100 µM
K-562 leukemia
  TGI: > 100 µM
RXF 393 renal
  TGI: > 100 µM
NCI-H460 lung
  TGI: > 100 µM
OVCAR-5 ovarian
  TGI: > 100 µM
M19-MEL melanoma
  TGI: > 100 µM
COLO 205 colon
  TGI: > 100 µM
HCC-2998 colon
  TGI: > 100 µM
NCI-H522 lung
  TGI: > 100 µM
786-0 renal
  TGI: > 100 µM
SW-620 colon
  TGI: > 100 µM
KM20L2 colon
  TGI: > 100 µM
IGROV1 ovarian
  TGI: > 100 µM
M14 melanoma
  TGI: > 100 µM
DMS 273 small cell lung
  TGI: > 100 µM
RPMI-8226 leukemia
  TGI: > 100 µM
CCRF-CEM leukemia
  TGI: > 100 µM
HOP-62 NSCLC
  TGI: > 100 µM
SK-MEL-2 melanoma
  TGI: > 100 µM
SF-268 CNS
  TGI: > 100 µM
HCT-116 colon
  TGI: > 100 µM
LOX IMVI melanoma
  TGI: > 100 µM
NCI-H226 lung
  TGI: > 100 µM
TK-10 renal
  TGI: > 100 µM
SN12C renal
  TGI: > 100 µM
SNB-75 CNS
  TGI: > 100 µM
SK-MEL-5 melanoma
  TGI: > 100 µM
SNB-78 CNS
  TGI: > 100 µM
MALME-3M melanoma
  TGI: > 100 µM
SK-OV-3 ovarian
  TGI: > 100 µM
SNB-19 CNS
  TGI: > 100 µM
NCI-H23 lung
  TGI: > 100 µM
ACHN renal
  TGI: > 100 µM
DMS 114 small cell lung
  TGI: > 100 µM
SR leukemia
  TGI: > 100 µM
A549 NSCLC
  TGI: > 100 µM
OVCAR-8 ovarian
  TGI: > 100 µM
SK-MEL-28 melanoma
  TGI: > 100 µM
U251 CNS
  TGI: > 100 µM
CAKI-1 renal
  TGI: > 100 µM
XF 498 CNS
  TGI: > 100 µM
A498 renal
  TGI: > 100 µM
KM12 colon
  TGI: > 100 µM
HOP-18 NSCLC
  TGI: > 100 µM
OVCAR-3 ovarian
  TGI: > 100 µM
HL-60(TB) leukemia
  TGI: > 100 µM
UO-31 renal
  TGI: > 100 µM
